The values below come from ChEMBL document CHEMBL1140021, “Ferulic acid and benzothiazole dimer derivatives with high binding affinity to beta-amyloid fibrils” (Bioorg Med Chem Lett, 2007).

A word on the Ki: it is a dissociation constant, usually derived from enzyme kinetics or from competition with a known ligand.

Structures are written as SMILES.

This assay is described as follows: Displacement of [125I]TZDM from human beta amyloid fibril 1-42. In general terms: In a radioligand displacement assay an active substance lowers the binding of a labelled ligand.

`COc1cc(/C=C/C(=O)O)ccc1N1CCN(c2ccc(/C=C/C(=O)O)cc2OC)CC1` returned a Ki of 1.36 nM.

In turn, `COc1cc(/C=C/C(=O)O)ccc1OCCOc1ccc(N(C)C)cc1OC` returned a Ki of 1 nM.

Turning to `Cc1ccc2nc(NCCNc3nc4ccc(C)cc4s3)sc2c1`, the Ki amounted to 0.81 nM.

`COc1cc(/C=C/C(=O)O)ccc1OCCOc1ccc(N(CC(=O)O)CC(=O)O)cc1OC` had an inhibition constant Ki of 0.57 nM. The Ki values of the last two molecules are within 1.5-fold of each other.

On to `Fc1ccc2nc(NCCNc3nc4ccc(F)cc4s3)sc2c1`, for which the Ki came out at 0.75 nM. The Ki values of the last two molecules are within 1.5-fold of each other.

`Brc1ccc2nc(NCCNc3nc4ccc(Br)cc4s3)sc2c1` gave a Ki of 1.11 nM. The Ki values of the last two molecules are within 1.5-fold of each other.

Turning to `Nc1ccc2nc(NCCNc3nc4ccc(N)cc4s3)sc2c1`, the Ki was 0.69 nM.

`CS(=O)(=O)c1ccc2nc(NCCNc3nc4ccc(S(C)(=O)=O)cc4s3)sc2c1` registered an inhibitory constant (Ki) of more than 10 nM.

On to `CN(CCN(C)c1nc2ccc(Cl)cc2s1)c1nc2ccc(Cl)cc2s1`, for which the Ki was 0.64 nM.

`CN(CCN(C)c1nc2ccc(S(C)(=O)=O)cc2s1)c1nc2ccc(S(C)(=O)=O)cc2s1`: the affinity, expressed as Ki, was 0.55 nM.

`CN(CCN(C)c1nc2ccc(N)cc2s1)c1nc2ccc(N)cc2s1` had a Ki of 0.69 nM.

For the molecule `COc1cc(/C=C/C(=O)O)ccc1OCCOc1ccc(/C=C/C(=O)O)cc1OC`, the Ki is 0.6 nM.

With `CN(CCN(C)c1nc2ccccc2s1)c1nc2ccccc2s1`, the Ki was determined as 0.53 nM.

`CN(CCN(C)c1nc2ccc(F)cc2s1)c1nc2ccc(F)cc2s1` had an inhibitory constant (Ki) of 1.37 nM. This Ki lies about 2.6-fold higher than the previous one.

Turning to `CN(CCN(C)c1nc2ccc(Br)cc2s1)c1nc2ccc(Br)cc2s1`, the inhibition constant Ki was determined as 0.55 nM.

Take `COc1cc(/C=C/C(=O)O)ccc1N(C)CCN(C)c1ccc(/C=C/C(=O)O)cc1OC`: the Ki worked out at 0.72 nM.

`c1ccc2sc(NCCNc3nc4ccccc4s3)nc2c1`: the affinity, expressed as Ki, was 0.71 nM.

For `Clc1ccc2nc(NCCNc3nc4ccc(Cl)cc4s3)sc2c1`, the Ki worked out at 0.96 nM.

`Cc1ccc2nc(N(C)CCN(C)c3nc4ccc(C)cc4s3)sc2c1` had a Ki of 0.61 nM.

`COc1cc(/C=C/C(=O)O)ccc1O` [FERULATE] returned a Ki of 0.77 nM.

`[11CH3]Nc1ccc(-c2nc3ccc(O)cc3s2)cc1` [PITTSBURGH COMPOUND B] registered a Ki of 0.77 nM.
